# Source: patent publication US6372236B1, “Cream composition for skin care” (Doosan Corporation, priority 2000, dated 2002)
# System: acne
# Test: Test on patients suffering from acne
# Format: in vivo, human
structure (smiles),measurement,value
CCCCCCCCCCCCCC[C@@H](O)[C@@H](O)[C@@H](N)CO [phytosphingosine],therapeutic efficacy,good therapeutic efficacy
